Counter-ions that a name gives are not always drawn.
Target: T1, human CCR5 (Homo sapiens, UniProt P51681)
T1 construct: expressed in transfected cells
Assay: Inhibition test on the binding of RANTES to CCR5 (RANTES-induced transient increase of Ca ion) in CCR5/CHO cells
Format: cell-based
Experimental: The whole procedures were carried out by preparing gene high expressing cells under basic genetic engineering methods by utilizing conventional methods. Also, as to the methods for the measurement in the present invention, improvement of measurement accuracy and/or modification of measurement sensitivity were adopted in order to evaluate the compound of the present invention. Detailed methods for the experiment are illustrated below.
(1) Isolation of Human CCR5 Genes
Human placental cDNA was prepared using Marathon cDNA amplification kit (Clontech). […]
Thus established human CCR5 stable over-expressing CHO cells (CCR5/CHO cells) were suspended in Ham's F-12 medium containing FBS (10%) and dispensed in […] portions into a 96 well plate. […] Transient increase in the intracellular Ca^2+ concentration induced by the human RANTES was measured using a Ca^2+ detector for 96 well use (Hamamatsu Photonics), and inhibition ration (%) of the test compound was calculated by the following calculation formula. Inhibition ratio=(Ec−Ea)/Ec×100 • Ec: measured value of Ca^2+ transient increase by RANTES • Ea: measured value of Ca^2+ transient increase by RANTES when a test compound was added

T1 sequence (P51681 whole entry): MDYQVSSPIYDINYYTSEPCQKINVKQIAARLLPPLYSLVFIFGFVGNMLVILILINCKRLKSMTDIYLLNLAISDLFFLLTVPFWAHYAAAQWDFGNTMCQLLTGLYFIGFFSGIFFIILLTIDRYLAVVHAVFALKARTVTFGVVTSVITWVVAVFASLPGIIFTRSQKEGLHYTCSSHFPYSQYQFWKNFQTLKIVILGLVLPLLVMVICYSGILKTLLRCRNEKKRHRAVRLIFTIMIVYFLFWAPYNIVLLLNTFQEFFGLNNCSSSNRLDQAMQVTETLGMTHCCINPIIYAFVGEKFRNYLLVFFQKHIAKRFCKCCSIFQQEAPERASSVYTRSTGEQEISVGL

IC50: 4.16 µM
SMILES: COc1ccc(CN2CCC(c3ccc(CNC(=O)c4ccc(Cl)cc4)cc3)CC2)cc1OC [Example 1, 4-chloro-N-{4-[1-(3,4-dimethoxybenzyl)piperidin-4-yl]benzyl}benzamide hydrochloride]
